Source: patent US6080791A, “Method of treating a viral condition by inhibiting membrane fusion” (priority 1992, dated 2000)
Read-outs that look alike come from different tables or passages of the source.

What was measured:
[1] = target: hemagglutinin (BHA), fusion peptide exposure (Influenza A virus (A/X-31(H3N2)), UniProt P03438); assay type: biochemical, C22 / X31 influenza virus (H3N2); settings: for inhibition in the SPA assay: 1 μM-1 mM
[2] = Protocol: Synthesis, purification, and characterization of selected compounds are summarized below. Stock solutions were prepared fresh daily. All solutions of the test compounds were prepared in dimethyl-sulfoxide (DMSO).
[3] = in vitro; settings: dog, mdck
Protocol: The ELISA-based assay described below (EIA antiviral assay) was used to measure antiviral activity. Cell viability was measured in parallel to distinguish inhibition of viral replication from toxicity.
Infections of MDCK2 cells with virus, compounds, and DMSO were set up identically as for the EIA assay. Following the 15 hour incubation, test compounds were washed away with PBS. 50 μl of MDCK2 growth media and 25 μl 2 mg/ml 3-(4,5-dimethylthiazol-2-yl)-2,5-diphenyl tetrazolium bromide (Sigma) in PBS were added to each well. Plates were returned to 37° C., 5% CO2 for 4 hrs. Crystals were broken up by vigorous mixing following addition of 80 μl isopropanol/0.04 N HCl. After incubation for 30 mins at RT, OD570 was read on an ELISA reader. % Inhibition is the % reduction of OD570 in the wells infected with compound compared to otherwise identical samples with compound omitted.

[4] = tested on: C22 virus in MDCK2 cells; experiment: microbe, parasite or virus in culture; settings: unidentified influenza virus; for IC50: MDCK2, read-out: INF, negative log of IC50 (converted)
[5] = tested on: hemagglutinin-mediated hemolysis of human red blood cells; experiment: Hemolysis (HEM) assay; assay type: cell-based, C22 influenza virus; human red blood cells
[6] = tested on: hemoglobin; experiment: Hb control (quenching of OD570 of hemoglobin); design: species or system human
[7] = tested on: low pH BHA; experiment: SPA POST control (nonspecific quenching); design: species or system C22 / X31 influenza virus (H3N2)
Protocol: The compounds being screened by SPA are present during scintillation counting. Some of the chemicals, particularly those that are highly colored, quench the detection of radioactivity. A control ("POST") distinguishes whether apparent inhibition arises from inhibition of the conformational change or from nonspecific effects. The test compound is added to a sample of BHA that had previously been acidified and reneutralized. The mixture is then precipitated as usual. Since the BHA treated in this manner is known to be in the low pH conformation, a reduction in measurable cpm compared to controls with ligand omitted proves the compound interferes with the detection system.
^3 H-Leu BHA was diluted to 10,000 cpm (counts per minute) per 200 μl in MSSH buffer (10 mM HEPES, 10 mM MES, 10 mM succinate, 0.10 M NaCl, pH 7.0) containing 0.1% NP40. Protein was incubated with the specified concentration of trial compound for 25 minutes at RT. The same volume of solvent used to dissolve the compound was added to control samples and the final concentration of DMSO in all solutions was 0.67% v/v. A predetermined amount of 1N HAc was added to bring the reactions to the appropriate pH (usually pH 5.0). Following a 5 minute (unless specified otherwise) incubation at RT, reactions were reneutralized with 1N NaOH. For POST controls, compounds were added to the appropriate concentration after reneutralization. 200 μL aliquots of the protein solution were added to scintillation vials containing 100 μl protein A-SPA beads (Amersham), 5% fetal bovine serum (FBS), and antibody. Vials were incubated overnight at RT with constant shaking. Each reaction used 10 μl of fusion peptide antiserum diluted 1:10 with 50% glycerol. Cpm were detected in a Beckman LS3801 scintillation counter without addition of liquid scintillant.
Apparent inhibition due to nonspecific effects was quantitated from the POST controls with the equation:
observed cpm=true cpm*quench factor

[8] = tested on: C22 virus in MDCK2 cells
[9] = tested on: influenza-mediated syncytia formation, CV-1 cells
[10] = MDCK2, 15 h, read-out: infectivity % inhibition
[11] = unidentified influenza virus, Erythrocyte, log conc -3 (M), read-out: hemolysis % ↓ OD
[12] = unidentified influenza virus, Erythrocyte, 0.25 h, Table 6, 10^-3 = 1 mM, low pH 15 minutes, read-out: IC50 hemolysis
[13] = unidentified influenza virus, Erythrocyte, Table 7, read-out: HEM, negative log of IC50 (converted)
[14] = unidentified influenza virus, Erythrocyte, log conc -4 (M), read-out: hemolysis % ↓ OD

Sequence of hemagglutinin (BHA), fusion peptide exposure (Influenza A virus (A/X-31(H3N2)), UniProt P03438) (P03438 whole entry, looked up, the tested form may be a part): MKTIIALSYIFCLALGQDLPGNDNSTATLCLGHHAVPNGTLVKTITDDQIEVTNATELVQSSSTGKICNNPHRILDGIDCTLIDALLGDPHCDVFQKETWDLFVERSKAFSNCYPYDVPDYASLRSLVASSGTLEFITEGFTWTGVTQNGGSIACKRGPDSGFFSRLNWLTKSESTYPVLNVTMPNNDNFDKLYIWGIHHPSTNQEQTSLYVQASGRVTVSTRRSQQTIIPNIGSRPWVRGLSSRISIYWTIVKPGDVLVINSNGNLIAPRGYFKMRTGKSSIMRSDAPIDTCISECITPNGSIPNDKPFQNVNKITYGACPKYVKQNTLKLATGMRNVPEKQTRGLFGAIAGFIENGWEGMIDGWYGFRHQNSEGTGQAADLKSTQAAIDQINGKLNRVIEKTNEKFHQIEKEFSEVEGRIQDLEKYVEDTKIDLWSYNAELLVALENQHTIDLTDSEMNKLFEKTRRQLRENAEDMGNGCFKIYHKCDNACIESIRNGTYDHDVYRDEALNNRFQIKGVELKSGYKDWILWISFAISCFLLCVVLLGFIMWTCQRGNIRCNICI

O=C1c2ccccc2C(=O)c2c(O)ccc(O)c21 [Compound 102, quinizarin]
inhibition in the SPA assay [1]: showed no inhibition
activity note in Table 7 [1]: inactive
solubility at 1 mM [2]: only partially soluble at 1 mM

Oc1ccc(O)c2ccccc12 [Compound 110, 1,4-dihydroxynaphthalene]
solubility at 1 mM [2]: only partially soluble at 1 mM
cytotoxicity at 15 h, 1 µM [3]: 5 ± 12.5%
cytotoxicity at 15 h, 10 µM [3]: 19.2 ± 15.6%
cytotoxicity at 15 h, 100 µM [3]: 98.3 ± 1.2%
cytotoxicity at 15 h, 1000 µM [3]: 96.9 ± 0.4%
inhibition at 1 µM [4, 10]: -9.8 ± 0.6%
inhibition at 10 µM [4, 10]: 61.1 ± 50.8%
inhibition at 100 µM [4, 10]: 91.9 ± 11.5%
inhibition at 1000 µM [4, 10]: 102%

Oc1ccc(Cl)c2ccccc12 [Compound 101, 4-chloro-1-naphthol]
inhibition in the SPA assay [1]: showed no inhibition
activity note in Table 7 [1]: inactive
inhibition at 1000 µM [5, 11]: 112%
Hb control % ↓ OD ([6]; log conc -3 (M)): 93.0%
solubility at 1 mM [2]: only partially soluble at 1 mM
cytotoxicity at 15 h, 100 µM [3]: 97.4%

5,8-dihydro-5,8-methano-1,4-naphthalenediol [Compound 83]
SPA activity [1]: significant activity
% inhibition, POST (Table 1) ([7]; 1 mM, POST control): 2.1%
inhibition of hemolytic activity [5]: inhibits HA-mediated hemolysis
hemolysis % ↓ OD ([5]; log conc -3 (M), 1000 µM): 67.0 ± 15.1%
hemolysis % ↓ OD ([5]; log conc -4 (M), 100 µM): 17.9 ± 20.0%
hemolysis % ↓ OD ([5]; log conc -5 (M), 10 µM): 11.3 ± 10.3%
Hb control % ↓ OD ([6]; log conc -3 (M)): 16.5 ± 2.1%
infectivity % inhibition ([8]; log conc -3 (M)): 51.1 ± 28.3%
infectivity % inhibition ([8]; log conc -4 (M)): 33.1 ± 20.2%
infectivity % inhibition ([8]; log conc -5 (M)): 8.7 ± 6.7%
infectivity % inhibition ([8]; log conc -6 (M)): 12.3 ± 2.5%

CC(C)(C)c1cc(O)ccc1O [Compound 117, tert-butylhydroquinone]
activity rank among compounds tested [1]: most active
% inhibition, POST control ([7]; log conc -3 (M)): -3.4%
% inhibition, POST control ([7]; log conc -4 (M)): 2.9%
% inhibition, POST control ([7]; log conc -5 (M)): 9.1%
% inhibition, POST control ([7]; log conc -6 (M)): 4.7%
inhibition of hemolytic activity [5]: apparently inhibited hemolytic activity
IC50 [5, 12]: 100 µM
IC50 [5, 13]: 100 µM
inhibition at 1000 µM [5, 11]: 116%
inhibition at 100 µM [5, 14]: 31.6 ± 6.9%
inhibition at 10 µM ([5]; unidentified influenza virus, Erythrocyte, log conc -5 (M), read-out: hemolysis % ↓ OD): 13.9%
Hb control % ↓ OD ([6]; log conc -3 (M)): 17.8%
Hb control % ↓ OD ([6]; log conc -4 (M)): 9.9 ± 2.8%
Hb control % ↓ OD ([6]; log conc -5 (M)): 7.9%
inhibition of syncytia formation ([9]; 1 μM): Significant inhibition was not observed
inhibition of syncytia formation ([9]; 10 μM): completely abolished the ability of the virus to induce syncytia
cytotoxicity at 15 h, 1 µM [3]: -8.4 ± 7.6%
cytotoxicity at 15 h, 10 µM [3]: -13.7 ± 2.8%
cytotoxicity at 15 h, 100 µM [3]: -26.1 ± 3.3%
inhibition at 1 µM [4, 10]: 7.5 ± 0.1%
inhibition at 10 µM [4, 10]: 22.2 ± 13.2%
inhibition at 100 µM [4, 10]: 53.7 ± 26.4%
IC50 [4]: 10 to 100 µM

Cc1cc(O)c(C)cc1O [Compound 116, 2,5-dimethylhydroquinone]
SPA activity [1]: inactive in the SPA
inhibition of hemolytic activity [5]: did not
IC50 [5, 12]: > 1000 µM
IC50 [5, 13]: > 1000 µM
inhibition at 1000 µM [5, 11]: 17.3%
inhibition at 100 µM [5, 14]: 7.7%
Hb control % ↓ OD ([6]; log conc -3 (M)): 44.0%
Hb control % ↓ OD ([6]; log conc -4 (M)): 31.6%
syncytia, Table 6 ([9]; Table 6): morph
infectivity inhibition [8]: inhibited infectivity
cytotoxicity at 15 h, 1 µM [3]: 3.6 ± 4.5%
cytotoxicity at 15 h, 10 µM [3]: -9.4 ± 5%
cytotoxicity at 15 h, 100 µM [3]: -23.6 ± 5%
inhibition at 1 µM [4, 10]: 18.8 ± 1.7%
inhibition at 10 µM [4, 10]: 42.8 ± 4.7%
inhibition at 100 µM [4, 10]: 78.1 ± 10%
IC50 [4]: 10 to 100 µM

O=c1[nH]c(=O)n(O)c2nc[nH]c12 [Compound 113, xanthine 3-N-oxide]
solubility in DMSO ([2]; DMSO): insoluble in DMSO
